Test results as given in patent publication US20240299698A1, “PREVENTION AND TREATMENT OF POST-OPERATIVE COGNITIVE DYSFUNCTION (POCD)” (Noetix Pharma LLC, priority 2022, published 2024).

What was measured:
[1] = Stability of pirfenidone dose preparation in vehicle; assay type: physicochemical; details: 0.9% saline
Protocol: • Vehicle: 0.9% saline • Working concentration: 66.67 mg/ml • Preparation: Add 1000 mg of pirfenidone to 15 mL of 0.9% saline • Stability in vehicle: Stable for a minimum of 8 days
• Vehicle: 0.9% saline • Working concentration: 33.33 mg/mL • Preparation: Add 12 mL of high dose pirfenidone to 12 mL of 0.9% saline • Stability in vehicle: Stable for a minimum of 8 days

[2] = healthy subjects; cited from earlier work
[3] = tested on: hippocampal microglial cells; assay: Evaluation of hippocampal microglial cell morphology (Iba1 immunohistochemistry); assay type: in vivo, Male C57BI/6 mice; details: for Iba1-positive microglial cell morphology (activated characteristics), rank 0-2: 8 days post-surgery, n=8
Protocol: A subset of mice was evaluated to compare acute and chronic treatment of pirfenidone paradigms against Normal Control and Disease Control tissues (n=8/treatment group). A neuroinflammation marker, ionizing calcium binding adaptor molecule 1 (Iba1), was investigated in the hippocampus as an indication of the level of inflammatory response. The hippocampus is particularly vulnerable to both acute and chronic stressors, including those triggered by physical trauma.
The right hemispheres of a subsection of study mice were evaluated via fluorescent IHC analysis to investigate the impact of laparotomy and drug intervention on hippocampal inflammatory mechanisms. Iba1 was assessed as a marker of neuroinflammation because it is indicative of inflammatory response in the central nervous system.
Cryoprotected hemispheres were blocked in OCT compound (Thermofisher) and stored at −80° C. until sectioning. […]
• To obtain micrographs for quantification • Fluorescent microscope (Zeiss Axio Observer Z1) Apotome.2 imaging system Zeiss imaging software (Zen 2 Blue edition) • Settings were manually selected to allow visualization of signal on all sections (signal must be visible on low intensity sections but must not be overexposed on high intensity sections). […]
Ionized calcium-binding adapter molecule 1 (Iba1) is a microglia-specific calcium-binding protein that participates in phagocytosis in activated microglia. […] Iba1 is thus a sensitive marker of inflammation and is quantified by measuring the intensity of the Iba1 positive signal. […]
Hippocampal tissue from the right hemispheres was evaluated for functional cell morphology using non-parametric rank ordering of tissue as follows: • 0=normal morphology (ramified, mostly ramified) • 1=moderate morphology (ramified-activated) • 2=activated morphology (activated, activated ameboid, ameboid)

[4] = Body weight monitoring after surgery; assay type: in vivo, Male C57BI/6 mice; details: Acute and Chronic dose groups vs controls
Protocol: Mice were weighed 24 hours after arrival, weekly prior to the initiation of pirfenidone administration, and then daily throughout the remainder of the study. Post-induction, animals were assessed daily to monitor body condition, pain response, and general recovery parameters. • Test System: Male C57BI/6 mice • Number of Animals/Group: 12 animals per group (total of 48 mice) • Age: Cohort 1: 12 weeks at arrival • Cohort 2: 10 weeks at arrival • Model Induction: Performed at 14 weeks of age • Weight: 31.6±0.42 SEM g at time of surgery • Allocation: Animals were pseudo-randomly assigned to treatment groups balanced for weight • Health inspection: A health inspection was performed by a clinical veterinarian prior to the commencement of the study.
Mice were weighed 24 hours after arrival, weekly prior to the initiation of Test Article administration, and then daily throughout the remainder of the study.

mouse model of (POCD) = assay: Behavioral test battery, summary of experimental results; assay type: in vivo, Male C57BI/6 mice
Source text: The project included experiments performed to investigate the therapeutic effects of administration of pirfenidone in a mouse model of (POCD). The model was developed during pilot work completed earlier in the study and was induced by performing a laparotomy with a 5-minute manipulation of abdominal viscera and musculature. Weights and physical condition of the animals were closely monitored throughout the study, with presurgical and daily post-surgical gavage of pirfenidone or saline administered. Behavioral testing was performed to evaluate alterations in learning and memory processes using fear conditioning, novel object recognition, and water maze paradigms. Following euthanasia on the eighth day post-surgery, hippocampal tissue was preserved and later evaluated for morphological characteristics related to microglial cell activation.
Behavioral testing was performed at various time points throughout the study as outlined in each separate section below and summarized in Table 2. All tests were recorded and analyzed by experimenters blinded to treatment. Data were obtained through a combination of experimenter scoring and use of AnyMaze™ Video Tracking System evaluation.

Stability in vehicle ([1]; 33.33 mg/mL (low dose)): ≥ 8 days
Stability in vehicle ([1]; 66.67 mg/ml (high dose)): ≥ 8 days
Compound: Cc1ccc(=O)n(-c2ccccc2)c1 [pirfenidone, 5-methyl-1-phenyl-2-(1H)-pyridone]
mean terminal half-life [2]: approximately 3 hours
Iba1-positive microglial cell morphology (activated characteristics), rank 0-2 ([3]; Acute): reduced this microglial activation
Iba1-positive microglial cell morphology (activated characteristics), rank 0-2 ([3]; Chronic): reduced this microglial activation
microglial activation in the hippocampus (summary) ([3]; summary statement, regimen not distinguished): reduced microglial activation in the hippocampus
weight loss at 24 hours post-surgery [4]: did not differ between groups
behavioral testing responses (summary) (mouse model of (POCD); Acute pirfenidone treated animals): equivalent to or better than those seen in Normal Controls
behavioral testing responses (summary) (mouse model of (POCD); Chronic pirfenidone administration): beneficial effects, particularly for recognition memory
behavioral changes associated with memory in postoperative cognitive dysfunction (summary) (mouse model of (POCD); overall, pirfenidone treatment): protective effect
